Experimental data reported in patent publication US6329399A, “Antifungal amine derivatives and processing for producing the same” (Pola Chemical Industries, Inc., priority 1997, dated 2001).
Converted amounts (≈) assume the structure as drawn.

Legend:
Test in all cases: Measurement of antimycotic activity (minimum inhibitory concentration, MIC) against dermatophyte
Type in all cases: cell-based
M. canis TIMM0760 = details: Microsporum canis, 168 h, Sabouraud's agar pH=5.9, 27° C., 1 week
Experimental: (§1) The antimycotic activity of the compounds of the invention against dermatophyte was examined.
(§2) More particularly, the test dermatophyte strains shown in Tables 9 and 10 below were cultivated in advance on a slant culture of Sabouraud's agar medium (manufactured by Nissui Seiyaku Co., Ltd.; 1.0% peptone, 4.0% glucose, 1.5% agar, pH=5.9) at 27° C. for 2 weeks to allow them to grow conidia sufficiently. Then, sterilized physiological saline containing 0.05 weight/volume % of Tween 80 was added to the culture and while rubbing the surface of the culture with a platinum loop, the conidia were separated and caused to float. Using a hemocytometer, the filtrate was adjusted with sterilized physiological saline such that the concentration of conidia was 10^6 cells/ml, which was used as a test microbe liquid.
(§3) On the other hand, PR compounds and AD compounds (test drugs) of the present invention obtained in the examples described above were taken each in an amount of 10 mg, and 1 ml of dimethyl sulfoxide was added thereto to form a stock solution, of which 500 μl was taken and 500 μl of dimethyl sulfoxide was added thereto to prepare a 2-fold dilution. The same operation was repeated to prepare 13-stages ranging from 10 to 0.0025 mg/ml (final concentration of test system 100 to 0.025 μg/ml) of diluted drug solutions. Solutions with various diluted concentrations of test drug were each dispensed in sterilized petri dish with an amount of 100 μl. Then, 10 ml of sterile-dissolved Sabouraud's agar medium (1.0% peptone, 4.0% glucose, 1.5% agar, pH=5.9) was added, well mixed and solidified. Then, 5 μl of the test microbe solution previously adjusted were added using a microplanter, respectively.
(§4) The results are shown in Table 9 for PR compounds and in Table 10 for AD compounds, respectively. In the column of Compound No. in Tables 9 and 10, "PR-" or "AD-" were omitted.

[1] = test system: T. mentagrophytes TIMM1189; details: Trichophyton mentagrophytes, 168 h, Sabouraud's agar pH=5.9, 27° C., 1 week
Experimental: as §1, §2, §3, §4

[2] = test system: T. mentagrophytes TIMM1177; details: Trichophyton mentagrophytes, 168 h, Sabouraud's agar pH=5.9, 27° C., 1 week
Experimental: as §1, §2, §3, §4

M. gypseum IF08231 = details: Nannizzia gypsea, 168 h, Sabouraud's agar pH=5.9, 27° C., 1 week
Experimental: as §1, §2, §3, §4

T. rubrum IF05808 = details: Trichophyton rubrum, 168 h, Sabouraud's agar pH=5.9, 27° C., 1 week
Experimental: as §1, §2, §3, §4

T. violaceum TIMM1264 = details: Trichophyton violaceum, 168 h, Sabouraud's agar pH=5.9, 27° C., 1 week
Experimental: as §1, §2, §3, §4

[3] = test system: T. mentagrophytes IF07552; details: Trichophyton mentagrophytes, 168 h, Sabouraud's agar pH=5.9, 27° C., 1 week
Experimental: as §1, §2, §3, §4

T. rubrum IF09185 = details: Trichophyton rubrum, 168 h, Sabouraud's agar pH=5.9, 27° C., 1 week
Experimental: as §1, §2, §3, §4

[4] = test system: T. mentagrophytes IF05811; details: Trichophyton mentagrophytes, 168 h, Sabouraud's agar pH=5.9, 27° C., 1 week
Experimental: as §1, §2, §3, §4

Row | MIC (M. canis TIMM0760) | MIC [1] | MIC [2] | MIC (M. gypseum IF08231) | MIC (T. rubrum IF05808) | MIC (T. violaceum TIMM1264) | MIC [3] | MIC (T. rubrum IF09185) | MIC [4] | SMILES
1 | 3.12 mg/L (≈ 10.1 µM) | 6.25 mg/L (≈ 20.3 µM) | 6.25 mg/L (≈ 20.3 µM) | 6.25 mg/L (≈ 20.3 µM) | 3.12 mg/L (≈ 10.1 µM) | 6.25 mg/L (≈ 20.3 µM) | 3.12 mg/L (≈ 10.1 µM) | 3.12 mg/L (≈ 10.1 µM) | 6.25 mg/L (≈ 20.3 µM) | C=C(CN(C)Cc1ccc(C(C)(C)C)cc1)c1ccccc1C [Compound AD-028, N-(4-tert-butylbenzyl)-N-methyl-[2-(2-methylphenyl)-2-propenyl]amine]
2 | 0.39 mg/L (≈ 1.39 µM) | 0.39 mg/L (≈ 1.39 µM) | 0.39 mg/L (≈ 1.39 µM) | 6.25 mg/L (≈ 22.2 µM) | 0.39 mg/L (≈ 1.39 µM) | 0.39 mg/L (≈ 1.39 µM) | 1.56 mg/L (≈ 5.54 µM) | 0.39 mg/L (≈ 1.39 µM) | 0.39 mg/L (≈ 1.39 µM) | C=C(CN(C)C/C=C/C#CC(C)(C)C)c1ccccc1C [Compound PR-1533, trans-N-(6,6-dimethyl-2-hepten-4-ynyl)-N-methyl-[2-(o-tolyl)-2-propenyl]amine]
3 | 0.78 mg/L (≈ 2.43 µM) | 1.56 mg/L (≈ 4.85 µM) | 1.56 mg/L (≈ 4.85 µM) | 1.56 mg/L (≈ 4.85 µM) | 0.2 mg/L (≈ 0.622 µM) | 1.56 mg/L (≈ 4.85 µM) | 1.56 mg/L (≈ 4.85 µM) | 0.78 mg/L (≈ 2.43 µM) | 1.56 mg/L (≈ 4.85 µM) | C=C(CN(C)Cc1ccc(C(C)(C)C)cc1)c1ccc(C)c(C)c1 [Compound AD-043, N-(4-tert-butylbenzyl)-N-methyl-[2-(3,4-dimethylphenyl)-2-propenyl]amine]
4 | 0.1 mg/L (≈ 0.355 µM) | 0.1 mg/L (≈ 0.355 µM) | 0.39 mg/L (≈ 1.39 µM) | 1.56 mg/L (≈ 5.54 µM) | 0.1 mg/L (≈ 0.355 µM) | 0.1 mg/L (≈ 0.355 µM) | 0.39 mg/L (≈ 1.39 µM) | 0.1 mg/L (≈ 0.355 µM) | 0.1 mg/L (≈ 0.355 µM) | C=C(CN(C)C/C=C/C#CC(C)(C)C)c1cccc(C)c1 [Compound PR-1540, trans-N-(6,6-dimethyl-2-hepten-4-ynyl)-N-methyl-[2-(m-tolyl)-2-propenyl]amine]
5 | 0.39 mg/L (≈ 1.37 µM) | 0.39 mg/L (≈ 1.37 µM) | 0.39 mg/L (≈ 1.37 µM) | 6.25 mg/L (≈ 21.9 µM) | 0.39 mg/L (≈ 1.37 µM) | 0.39 mg/L (≈ 1.37 µM) | 0.39 mg/L (≈ 1.37 µM) | 0.39 mg/L (≈ 1.37 µM) | 0.39 mg/L (≈ 1.37 µM) | C=C(CN(C)C/C=C/C#CC(C)(C)C)c1ccc(F)cc1 [Compound PR-1430, trans-N-(6,6-dimethyl-2-hepten-4-ynyl)-N-methyl-[2-(4-fluorophenyl)-2-propenyl]amine]
6 | 6.25 mg/L (≈ 18.5 µM) | 12.5 mg/L (≈ 36.9 µM) | 12.5 mg/L (≈ 36.9 µM) | 12.5 mg/L (≈ 36.9 µM) | 3.12 mg/L (≈ 9.22 µM) | 12.5 mg/L (≈ 36.9 µM) | 6.25 mg/L (≈ 18.5 µM) | 3.12 mg/L (≈ 9.22 µM) | 6.25 mg/L (≈ 18.5 µM) | C=C(CN(C)Cc1ccc(C(C)(C)C)cc1)c1ccccc1[N+](=O)[O-] [Compound AD-033, N-(4-tert-butylbenzyl)-N-methyl-[2-(2-nitrophenyl)-2-propenyl]amine]
7 | 0.39 mg/L (≈ 1.46 µM) | 0.78 mg/L (≈ 2.92 µM) | 0.78 mg/L (≈ 2.92 µM) | 1.56 mg/L (≈ 5.83 µM) | 0.39 mg/L (≈ 1.46 µM) | 1.56 mg/L (≈ 5.83 µM) | 0.78 mg/L (≈ 2.92 µM) | 0.78 mg/L (≈ 2.92 µM) | 1.56 mg/L (≈ 5.83 µM) | C=C(CN(C)C/C=C/C#CC(C)(C)C)c1ccccc1 [Compound PR-1258, Trans-N-(6,6-dimethyl-2-hepten-4-ynyl)-N-methyl-2-phenyl-2-propenylamine]
8 | 0.39 mg/L (≈ 1.13 µM) | 1.56 mg/L (≈ 4.5 µM) | 1.56 mg/L (≈ 4.5 µM) | 6.25 mg/L (≈ 18 µM) | 0.39 mg/L (≈ 1.13 µM) | 0.39 mg/L (≈ 1.13 µM) | 1.56 mg/L (≈ 4.5 µM) | 1.56 mg/L (≈ 4.5 µM) | 1.56 mg/L (≈ 4.5 µM) | C=C(CN(C)C/C=C/C#CC(C)(C)C)c1ccccc1Br [Compound PR-1505, trans-N-(6,6-dimethyl-2-hepten-4-ynyl)-N-methyl-[2-(2-bromophenyl)-2-propenyl]amine]

Row | SMILES | MIC (M. canis TIMM0760) | MIC [1] | MIC [2] | MIC (M. gypseum IF08231) | MIC (T. rubrum IF05808) | MIC (T. violaceum TIMM1264) | MIC [3] | MIC (T. rubrum IF09185) | MIC [4]
9 | CN(C/C=C/C#CC(C)(C)C)CC(=O)c1ccccc1O [Compound PR-1620, Trans-2-[N-(6,6-dimethyl-2-hepten-4-ynyl)-N-methylamino]-2'-hydroxyacetophenone] | 12.5 mg/L (≈ 43.8 µM) | 12.5 mg/L (≈ 43.8 µM) | 12.5 mg/L (≈ 43.8 µM) | 25 mg/L (≈ 87.6 µM) | 6.25 mg/L (≈ 21.9 µM) | 12.5 mg/L (≈ 43.8 µM) | 6.25 mg/L (≈ 21.9 µM) | 12.5 mg/L (≈ 43.8 µM) | 12.5 mg/L (≈ 43.8 µM)
